Each structure is given as a SMILES string.

By IC50 is commonly meant the point on the concentration scale where inhibition reaches its midpoint.

The target in this experiment is T1, human Nav1.8 (hNav1.8) ion channel (Homo sapiens, UniProt Q9Y5Y9).
T1 construct: expressed in transfected cells
T1 sequence (Q9Y5Y9 whole entry): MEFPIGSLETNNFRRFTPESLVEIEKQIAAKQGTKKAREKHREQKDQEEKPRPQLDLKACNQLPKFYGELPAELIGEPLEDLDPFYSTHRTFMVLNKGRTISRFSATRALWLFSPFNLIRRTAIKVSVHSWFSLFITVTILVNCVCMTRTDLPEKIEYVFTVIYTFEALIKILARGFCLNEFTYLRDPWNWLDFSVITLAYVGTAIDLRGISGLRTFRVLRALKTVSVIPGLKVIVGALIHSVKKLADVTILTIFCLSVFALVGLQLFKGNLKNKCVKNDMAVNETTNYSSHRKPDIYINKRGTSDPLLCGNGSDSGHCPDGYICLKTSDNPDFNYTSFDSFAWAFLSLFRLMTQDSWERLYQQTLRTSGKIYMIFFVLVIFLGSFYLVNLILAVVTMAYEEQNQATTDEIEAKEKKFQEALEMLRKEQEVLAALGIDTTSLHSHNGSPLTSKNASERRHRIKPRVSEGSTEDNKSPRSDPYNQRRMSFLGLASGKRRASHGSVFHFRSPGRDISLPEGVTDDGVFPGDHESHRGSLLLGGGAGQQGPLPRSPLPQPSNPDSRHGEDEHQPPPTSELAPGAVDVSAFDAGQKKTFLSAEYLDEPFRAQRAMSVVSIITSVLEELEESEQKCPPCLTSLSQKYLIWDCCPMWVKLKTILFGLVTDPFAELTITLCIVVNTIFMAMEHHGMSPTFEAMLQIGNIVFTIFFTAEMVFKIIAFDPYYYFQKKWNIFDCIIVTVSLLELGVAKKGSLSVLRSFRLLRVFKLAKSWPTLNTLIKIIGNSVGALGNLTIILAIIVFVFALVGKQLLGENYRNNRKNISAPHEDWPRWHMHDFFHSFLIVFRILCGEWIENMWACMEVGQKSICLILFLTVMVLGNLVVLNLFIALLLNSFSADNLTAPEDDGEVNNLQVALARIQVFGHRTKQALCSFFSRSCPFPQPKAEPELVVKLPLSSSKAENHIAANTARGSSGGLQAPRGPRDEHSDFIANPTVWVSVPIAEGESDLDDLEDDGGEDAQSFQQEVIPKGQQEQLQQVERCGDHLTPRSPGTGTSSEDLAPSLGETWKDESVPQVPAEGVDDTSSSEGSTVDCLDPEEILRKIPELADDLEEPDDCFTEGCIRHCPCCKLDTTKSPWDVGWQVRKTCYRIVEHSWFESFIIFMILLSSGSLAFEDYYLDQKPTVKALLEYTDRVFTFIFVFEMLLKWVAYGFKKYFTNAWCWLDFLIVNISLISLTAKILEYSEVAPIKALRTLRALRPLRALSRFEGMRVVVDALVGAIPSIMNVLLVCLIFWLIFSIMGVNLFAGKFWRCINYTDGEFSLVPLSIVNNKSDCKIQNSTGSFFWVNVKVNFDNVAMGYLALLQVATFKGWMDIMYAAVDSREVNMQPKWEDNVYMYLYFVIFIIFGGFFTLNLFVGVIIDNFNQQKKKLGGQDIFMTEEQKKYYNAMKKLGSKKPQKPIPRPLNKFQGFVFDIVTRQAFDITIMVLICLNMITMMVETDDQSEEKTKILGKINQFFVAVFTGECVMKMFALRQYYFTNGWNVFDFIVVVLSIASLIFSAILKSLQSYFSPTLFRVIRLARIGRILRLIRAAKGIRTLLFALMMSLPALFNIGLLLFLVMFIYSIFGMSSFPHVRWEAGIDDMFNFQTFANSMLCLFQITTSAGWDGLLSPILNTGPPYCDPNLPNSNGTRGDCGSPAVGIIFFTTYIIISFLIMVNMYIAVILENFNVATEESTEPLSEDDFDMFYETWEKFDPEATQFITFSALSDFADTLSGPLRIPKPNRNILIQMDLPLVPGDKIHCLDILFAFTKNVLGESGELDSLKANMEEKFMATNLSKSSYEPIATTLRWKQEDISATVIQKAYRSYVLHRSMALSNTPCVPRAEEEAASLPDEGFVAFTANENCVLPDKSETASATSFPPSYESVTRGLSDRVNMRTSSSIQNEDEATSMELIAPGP
The experiment can be described thus: Inhibition of human Nav1.8 stably expressed in SH-SY-5Y cells (membrane potential dye fluorescence assay). Type of experiment: cell-based. Conditions: Table 2 (compound numbers of the list in the description); SH-SY-5Y hNav1.8 cells, inhibition of membrane depolarisation, FLIPR membrane potential dye, 250 nM TTX, test concentration range 100 μM-0.05 μM; read-out: IC50. As to the method: Inhibition of Human Nav1.8 Stably Expressed in SH-SY-5Y Cells
A SH-SY-5Y neuroblastoma cell line stably expressing the human […] (hNav1.8) ion channel was constructed. This cell line has been used to develop a medium to high throughput assay for determining the ability of test compounds to inhibit membrane depolarisation mediated via the hNav1.8 channel.
SH-SY-5Y hNav1.8 are grown in adherent monolayer culture using 50:50 Ham's F-12/EMEM tissue culture medium supplemented with 15% (v/v) foetal bovine serum; 2 mM L-glutamine, 1% NEAA and 600 μg·ml^−1 Geneticin sulphate. Cells are removed from the tissue culture flask using trypsin/EDTA and re-plated into black walled, clear bottom 96-well assay plates at 50,000 cells·well^−1 24 hours prior to assay.
On the day of assay the cell assay plates are washed to remove cell culture medium using a sodium free assay buffer (145 mM tetramethyl ammonium chloride; 2 mM calcium chloride; 0.8 mM magnesium chloride hexahydrate; 10 mM HEPES; 10 mM glucose; 5 mM potassium chloride, pH 7.4). Fluorescent membrane potential dye solution (FLIPR™ membrane potential dye, Molecular Devices Corporation), containing 10 μM of a pyrethroid to prevent channel inactivation and 250 nM tetrodotoxin (TTX) to reduce interference from TTX-sensitive sodium channels present in the cell line. Test compound, initially dissolved in dimethyl sulfoxide but further diluted in sodium free buffer, is added to achieve the final test concentration range of 100 μM-0.05 μM.
Cell plates are incubated for 30 minutes at room temperature to allow equilibration of dye and test compound. Plates are then transferred to a fluorescence plate reader for fluorescence measurement using an excitation wavelength of 530 nm whilst measuring fluorescence emission at 565 nm. Baseline fluorescence levels are first determined before the addition of a sodium containing buffer (220 mM sodium chloride; 2 mM calcium chloride; 0.8 mM magnesium chloride hexahydrate; […]; 10 mM glucose; 5 mM potassium chloride. pH 7.4) to cause membrane depolarisation in those cells where channel block has not been effected (final sodium concentration=72.5 mM). Membrane depolarisation is registered by an increase in fluorescence emission at 565 nm.
The change in fluorescence seen in each test well upon the addition of sodium containing buffer is calculated relative to the baseline fluorescence for that well. This figure is then used for calculating the IC50 for each test compound.
Turning to `COc1ccc(C(CCNC(=O)CN2CCc3ccccc3C2)c2ccc(OC)cc2)cc1` [Compound 114, N-[3,3-Bis-(4-methoxy-phenyl)-propyl]-2-(3,4-dihydro-1H-isoquinolin-2-yl)-acetamide], the IC50 is 10.6 µM.
In the case of `COc1ccc(C(CCNC(=O)CN2CCc3cccc(OC)c3C2)c2ccc(OC)cc2)cc1` [Compound 115, N-[3,3-Bis-(4-methoxy-phenyl)-propyl]-2-(8-methoxy-3,4-dihydro-1H-isoquinolin-2-yl)-acetamide] it was 2.35 µM; in that of `CC(=O)Nc1ccc(C(CCNC(=O)CN2CCc3ccccc3C2)c2ccccc2)cc1NC(C)=O` (centres unmarked) [Compound 116, N-[3-(3,4-Bis-acetylamino-phenyl)-3-phenyl-propyl]-2-(3,4-dihydro-1H-isoquinolin-2-yl)-acetamide], 22.2 µM.
The same measure for `CS(=O)(=O)Nc1cccc2c1CN(CC(=O)NCCCC(c1ccccc1)c1ccccc1)CC2` [Compound 117, N-(4,4-Diphenyl-butyl)-2-(8-methanesulfonylamino-3,4-dihydro-1H-isoquinolin-2-yl)-acetamide]: 1.36 µM.
In the case of `O=C(CN1Cc2ccccc2C1)NC(c1ccc(F)cc1)c1ccc(F)cc1` [Compound 118, N-[Bis-(4-fluoro-phenyl)-methyl]-2-(1,3-dihydro-isoindol-2-yl)-acetamide] it was 10.2 µM; in that of `O=C(CN1CCc2ccccc2C1)NC(c1ccc(F)cc1)c1ccc(F)cc1` [Compound 119, N-[Bis-(4-fluoro-phenyl)-methyl]-2-(3,4-dihydro-1H-isoquinolin-2-yl)-acetamide], 1.91 µM.
In the case of `COc1cccc2c1CN(CC(=O)NC(c1ccc(F)cc1)c1ccc(F)cc1)CC2` [Compound 120, N-[Bis-(4-fluoro-phenyl)-methyl]-2-(8-methoxy-3,4-dihydro-1H-isoquinolin-2-yl)-acetamide], the IC50 amounted to 3.34 µM.
The same measure for `COc1cc2c(cc1OC)CN(CC(=O)NC(c1ccc(F)cc1)c1ccc(F)cc1)CC2` [Compound 121, N-[Bis-(4-fluoro-phenyl)-methyl]-2-(6,7-dimethoxy-3,4-dihydro-1H-isoquinolin-2-yl)-acetamide]: 3.45 µM.
The same measure for `Nc1cccc2c1CCN(CCC(=O)NCCC(c1ccccc1)c1ccccc1)C2` [Compound 122, 3-(5-Amino-3,4-dihydro-1H-isoquinolin-2-yl)-N-(3,3-diphenyl-propyl)-propionamide]: 0.96 µM; for `Nc1cccc2c1CCN(CC(=O)NCC(c1ccccc1)c1ccccc1)C2` [Compound 123, 2-(5-Amino-3,4-dihydro-1H-isoquinolin-2-yl)-N-(2,2-diphenyl-ethyl)-acetamide]: 2.89 µM; for `COc1cc2c(cc1OC)CN(CC(=O)NCCCC(c1ccccc1)c1ccccc1)CC2` [Compound 124, 2-(Dimethoxy-3,4-dihydro-1H-isoquinolin-2-yl)-N-(4,4-diphenyl-butyl)-acetamide]: 0.59 µM.
The same measure for `COc1cc2c(cc1OC)CN(CCC(=O)NCCC(c1ccccc1)c1ccccc1)CC2` [Compound 125, 3-(6,7-Dimethoxy-3,4-dihydro-1H-isoquinolin-2-yl)-N-(3,3-diphenyl-propyl)-propionamide]: 0.38 µM; for `COc1cc2c(cc1OC)CN(CC(=O)NCC(c1ccccc1)c1ccccc1)CC2` [Compound 126, 2-(6,7-Dimethoxy-3,4-dihydro-1H-isoquinolin-2-yl)-N-(2,2-diphenyl-ethyl)-acetamide]: 1.93 µM; for `Nc1cccc2c1CN(CCC(=O)NCCC(c1ccccc1)c1ccccc1)CC2` [Compound 127, 3-(8-Amino-3,4-dihydro-1H-isoquinolin-2-yl)-N-(3,3-diphenyl-propyl)-propionamide]: 0.65 µM.
Turning to `COc1cccc2c1CN(CC(=O)NCCCn1c3ccccc3c3ccccc31)CC2` [Compound 128, N-(3-Carbazol-9-yl-propyl)-2-(8-methoxy-3,4-dihydro-1H-isoquinolin-2-yl)-acetamide], the IC50 was 3.51 µM.
The same measure for `O=C(CN1CCc2cccc(O)c2C1)NCCCn1c2ccccc2c2ccccc21` [Compound 129, N-(3-Carbazol-9-yl-propyl)-2-(8-hydroxy-3,4-dihydro-1H-isoquinolin-2-yl)-acetamide]: 2.48 µM; for `Cc1cc2cc(Cl)ccc2n1CCCNC(=O)CN1CCc2cccc(O)c2C1` [Compound 131, N-[3-(5-Chloro-2-methyl-indol-1-yl)-propyl]-2-(8-hydroxy-3,4-dihydro-1H-isoquinolin-2-yl)-acetamide]: 3.61 µM.
The same measure for `COc1cccc2c1CN(CCNC(=S)NC(c1ccccc1)c1ccccc1)CC2` [Compound 133, 1-Benzhydryl-3-[2-(8-methoxy-3,4-dihydro-1H-isoquinolin-2-yl)-ethyl]-thiourea]: 0.6 µM.
In the case of `COc1cc2c(cc1OC)CN(CCNC(=S)NC(c1ccccc1)c1ccccc1)CC2` [Compound 134, 1-Benzhydryl-3-[2-(6,7-dimethoxy-3,4-dihydro-1H-isoquinolin-2-yl)-ethyl]-thiourea] it was 0.77 µM.
Take `COc1cccc2c1CN(CCNC(=O)NC(c1ccccc1)c1ccccc1)CC2` [Compound 135, 1-Benzhydryl-3-[2-(8-methoxy-3,4-dihydro-1H-isoquinolin-2-yl)-ethyl]-urea]: the IC50 came to 0.38 µM.
The same measure for `COc1cc2c(cc1OC)CN(CCNC(=O)NC(c1ccccc1)c1ccccc1)CC2` [Compound 136, 1-Benzhydryl-3-[2-(6,7-dimethoxy-3,4-dihydro-1H-isoquinolin-2-yl)-ethyl]-urea]: 2.11 µM; for `COc1cccc2c1CN(CCNC(=S)NCC(c1ccccc1)c1ccccc1)CC2` [Compound 137, 1-(2,2-Diphenyl-ethyl)-3-[2-(8-methoxy-3,4-dihydro-1H-isoquinolin-2-yl)-ethyl]-thiourea]: 0.44 µM.
In the case of `COc1cc2c(cc1OC)CN(CCNC(=S)NCC(c1ccccc1)c1ccccc1)CC2` [Compound 138, 1-[2-(6,7-Dimethoxy-3,4-dihydro-1H-isoquinolin-2-yl)-ethyl]-3-(2,2-diphenyl-ethyl)-thiourea] it was 0.52 µM; in that of `O=C(CN1CCc2cccc(O)c2C1)N1c2ccccc2Sc2ccccc21` [Compound 139, 2-(8-Hydroxy-3,4-dihydro-1H-isoquinolin-2-yl)-1-phenothiazin-10-yl-ethanone], 1.25 µM; in that of `COc1cccc2c1CN(CC(=O)N1c3ccccc3Sc3ccccc31)CC2` [Compound 140, 2-(8-Methoxy-3,4-dihydro-1H-isoquinolin-2-yl)-1-phenothiazin-10-yl-ethanone], 2.33 µM.
In the case of `O=C(CN1CCc2cccc(O)c2C1)N1c2ccccc2Sc2ccc(Cl)cc21` [Compound 141, 1-(2-Chloro-phenothiazin-10-yl)-2-(8-hydroxy-3,4-dihydro-1H-isoquinolin-2-yl)-ethanone] it was 1.85 µM; in that of `COc1cccc2c1CN(CC(=O)N1c3ccccc3Sc3ccc(Cl)cc31)CC2` [Compound 142, 1-(2-Chloro-phenothiazin-10-yl)-2-(8-methoxy-3,4-dihydro-1H-isoquinolin-2-yl)-ethanone], 2.09 µM; in that of `COc1cccc2c1CN(CC(=O)N1c3ccccc3[S+]([O-])c3ccccc31)CC2` [Compound 143, 2-(8-Methoxy-3,4-dihydro-1H-isoquinolin-2-yl)-1-(5-oxo-5H-5lambda*4*-phenothiazin-10-yl)-ethanone], 9.59 µM.
On to `O=C(CN1CCc2cccc(O)c2C1)N1c2ccccc2Oc2ccccc21` [Compound 144, 2-(8-Hydroxy-3,4-dihydro-1H-isoquinolin-2-yl)-1-phenoxazin-10-yl-ethanone], for which the IC50 turned out to be 0.5 µM.
The same measure for `O=C(CN1CCc2cccc(O)c2C1)N1c2ccccc2Sc2ccc(C(F)(F)F)cc21` [Compound 145, 2-(8-Hydroxy-3,4-dihydro-1H-isoquinolin-2-yl)-1-(2-trifluoromethyl-phenothiazin-10-yl)-ethanone]: 2.63 µM.
The same measure for `CC(=O)c1ccc2c(c1)N(C(=O)CN1CCc3cccc(O)c3C1)c1ccccc1S2` [Compound 147, 1-(2-Acetyl-phenothiazin-10-yl)-2-(8-hydroxy-3,4-dihydro-1H-isoquinolin-2-yl)-ethanone]: 2.04 µM; for `COc1cccc2c1CN(CC(=O)N1c3ccccc3Sc3ccc(C(C)=O)cc31)CC2` [Compound 148, 1-(2-Acetyl-phenothiazin-10-yl)-2-(8-methoxy-3,4-dihydro-1H-isoquinolin-2-yl)-ethanone]: 5.17 µM.

The record behind these values is patent US20070043024A1, “Azacyclic compounds as inhibitors of sensory neurone specific channels” (priority 2003, published 2007).
